Tests used:
LARP6/5′SL RNA complex = target: T1, LARP6/5′SL RNA complex (Homo sapiens, UniProt Q9BRS8); assay: Gel mobility shift: purified/recombinant LARP6 binding to 5′ stem-loop RNA in vitro; conditions: recombinant LARP6, electrophoretic mobility shift assay, FIG. 12
T1 sequence (Q9BRS8 1-491): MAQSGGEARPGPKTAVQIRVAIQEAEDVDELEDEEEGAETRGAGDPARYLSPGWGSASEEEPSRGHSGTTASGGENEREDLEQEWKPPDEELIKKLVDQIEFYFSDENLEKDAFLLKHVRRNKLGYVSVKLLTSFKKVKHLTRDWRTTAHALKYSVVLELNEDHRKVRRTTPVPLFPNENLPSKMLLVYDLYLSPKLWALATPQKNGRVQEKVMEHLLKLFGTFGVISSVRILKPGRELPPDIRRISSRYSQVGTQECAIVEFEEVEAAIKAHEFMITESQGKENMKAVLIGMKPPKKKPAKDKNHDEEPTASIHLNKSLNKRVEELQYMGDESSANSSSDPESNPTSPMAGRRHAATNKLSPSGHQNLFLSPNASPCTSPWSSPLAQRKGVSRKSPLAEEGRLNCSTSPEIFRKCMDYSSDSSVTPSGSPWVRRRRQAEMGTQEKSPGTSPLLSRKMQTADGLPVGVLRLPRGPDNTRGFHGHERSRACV
Protocol: Next, the inhibition of LARP6 binding was tested by gel mobility shift experiments in which binding of purified LARP6 to 5′SL RNA was resolved as protein/RNA complex in gel electrophoresis.
To assess the efficacy of CID 71314610 in inhibiting LARP6 binding to its target sequence, the 5′ stem-loop of type I collagen mRNAs, recombinant LARP6 protein was added to 5′ stem-loop RNA in vitro and CID 71314610 was added at nano-M concentrations to the reaction. The formation of LARP6/RNA complex was analyzed by electrophoretic mobility shift assay.

[1] = tested on: type I collagen secretion by human lung fibroblasts; assay: Type I collagen secretion by human lung fibroblasts (western blot of medium); type: cell-based
Protocol: Based on the ability of the cefixime preparation 1 component to inhibit LARP6/5′SL interaction, cefixime preparation 2 was tested to inhibit type 1 collagen production by human lung fibroblasts. The cells were treated with cefixime preparation 2 in a range of concentrations for 18 hours. The cellular medium was changed and the accumulation of type I collagen into the fresh medium was measured after 3 hours. This provided an estimate of the rate by which the cells can secrete type I collagen. […] At 50 μM, secretion of type I collagen was reduced by about 50%. At 100 μM it was reduced by about 80%. […] This provided evidence that a component of commercial cefixime preparations can act as antifibrotic drugs. Human lung fibroblasts are responsible for lung fibrosis. These cells were cultured in vitro and CID 71314610 was added to the cellular medium at 0.5-50 μM. After overnight incubation the medium was changed and secretion of type I collagen into the fresh medium was analyzed by western blot. The rate of collagen secretion into the medium is a measure of the profibrotic activity of cells. Type I collagen is composed of two polypeptides, α1(I) and α2(I), so both were analyzed. […] In three independent experiments the expression of α1(I) and α2(I) polypeptides was normalized to the expression of fibronectin and plotted as function of CID 71314610 concentration (FIG. 13, bottom panel).

[2] = tested on: fibronectin secretion by human lung fibroblasts; assay: Fibronectin secretion by human lung fibroblasts (western blot, specificity control); type: cell-based; conditions: same treatment as collagen read-out
Protocol: At 50 μM, secretion of type I collagen was reduced by about 50%. At 100 μM it was reduced by about 80%. […] This provided evidence that a component of commercial cefixime preparations can act as antifibrotic drugs.
Human lung fibroblasts are responsible for lung fibrosis. These cells were cultured in vitro and CID 71314610 was added to the cellular medium at 0.5-50 μM. After overnight incubation the medium was changed and secretion of type I collagen into the fresh medium was analyzed by western blot. The rate of collagen secretion into the medium is a measure of the profibrotic activity of cells. Type I collagen is composed of two polypeptides, α1(I) and α2(I), so both were analyzed. […] In three independent experiments the expression of α1(I) and α2(I) polypeptides was normalized to the expression of fibronectin and plotted as function of CID 71314610 concentration (FIG. 13, bottom panel).

purified LARP6 protein = target: T2, purified LARP6 protein (Homo sapiens, UniProt Q9BRS8); assay: Affinity binding of commercial cefixime preparation to purified LARP6, elution and mass spectrometry; conditions: FIG. 11
T2 sequence (Q9BRS8 1-491): T1 sequence (Q9BRS8 1-491)
Excerpt: The component with antifibrotic activity in the commercial cefixime preparations was identified by affinity binding of the commercial cefixime preparations to the purified LARP6 protein, followed by elution of the bound molecular species and their identification by mass spectrometry. […] This component has two diastereomer isoforms which were present in miniscule amounts in the commercial cefixime preparations, but both were sequestered by LARP6 protein.

CC1OC(=O)C2=C1CS[C@H](CNC(=O)/C(=N\OCC(=O)O)c1csc(N)n1)N2 (mixture of isomers) [CID 71314610, 2-[[[(Z)-1-(2-Aminothiazol-4-yl)-2-[[[(2R,5RS)-5-methyl-7-oxo-1,2,5,7-tetrahydro-4H-furo[3,4-d][1,3]thiazin-2-yl]methyl]amino]-2-oxoethylidene]amino]oxy]acetic acid]
dissociation of LARP6/RNA complexes (LARP6/5′SL RNA complex; 50 nM): 50%
dissociation of LARP6/RNA complexes (LARP6/5′SL RNA complex; 100 nM): ~90%
secretion of α1(I) and α2(I) collagen polypeptides ([1]; 0.5-50 μM, overnight incubation, FIG. 13 upper panel): inhibited by CID 71314610 in the concentration dependent manner
concentration with highly statistically significant inhibition of both polypeptides comprising type I collagen ([1]; three independent experiments, normalized to fibronectin, FIG. 13 bottom panel): 5 µM
secretion of fibronectin [2]: not affected
fraction of input present in cefixime preparation bound by LARP6 (purified LARP6 protein; one diastereomer): 50%
fraction of input present in cefixime preparation bound by LARP6 (purified LARP6 protein; the other diastereomer): 100%

— patent publication US12257256B2, “Compositions and methods for inhibiting type 1 collagen production” (Florida State University Research Foundation, Inc., priority 2020, dated 2025)
